This note sets out measurements from ChEMBL document CHEMBL1123897, “Nucleosides. 146. 1-Methyl-5-(2-deoxy-2-fluoro-beta-D-arabinofuranosyl)uracil, the C-nucleoside isostere of the potent antiviral agent 1-(2-deoxy-2-fluoro-beta-D-arabinofuranosyl)thymine (FMAU). Studies directed toward the synthesis of 2'-deoxy-2'-substituted arabino nucleosides. 6” (1987).

Common to all, as to assay type: functional
Common to all, as to details: read-out: ED50 (the source's name)

The species entered for experiment [1] is Homo sapiens. As to the kind of experiment: In vitro inhibitory activity against Herpes simplex virus-1(HSV-1) was determined in human foreskin fibroblasts.
For experiment [2], the species on record is Homo sapiens. Briefly: In vitro inhibitory activity against Herpes simplex […] was determined in human foreskin fibroblasts.
For experiment [3], the species on record is Homo sapiens. As to the kind of experiment: In vitro inhibitory activity against Varicella zoster virus(VZV) was determined in human foreskin fibroblasts.

`Cn1cc([C@@H]2O[C@H](CO)[C@@H](O)[C@@H]2F)c(=O)[nH]c1=O`: the figures for the EC50 in experiment [1], in experiment [2] and in experiment [3] were 8.5 µM, 23 µM and 6.4 µM, respectively.

Regarding `Cc1cn([C@@H]2O[C@H](CO)[C@@H](O)[C@@H]2F)c(=O)[nH]c1=O` [5-METHYL-2'-FLUOROARAURACIL], the EC50 came to 0.06 µM in experiment [1], 0.13 µM in experiment [2] and 0.02 µM in experiment [3].
